These results are taken from ChEMBL document CHEMBL1201862, “PubChem BioAssay data set” (2004).

What all share (assay type): functional
Assay [1] in a line: cytotoxicity toward DRD oncogenic fibroblasts, dose response, cell-based, non-viral oncogenic, luminescence (AID 1934). The settings on record: Homo sapiens.
The test system of the next assay is BJ. Description: cytotoxicity toward BJ-TERT fibroblasts, dose response, cell-based, RAS-independent, luminescence (AID 1933). The settings on record: Homo sapiens.
The target of another assay is Integrin alpha-4 (Homo sapiens, UniProt P13612). The experiment in a line: VLA-4 integrin allosteric ligands, SAR follow-up, cell-based, LIBS antibody binding, flow cytometry (AID 488791). (Flow cytometry measures light scatter and fluorescence of single cells or particles in a stream.)
The next assay addresses T1, Hexokinase HKDC1 (Homo sapiens, UniProt Q2TB90).
T1 sequence (Q2TB90 whole entry): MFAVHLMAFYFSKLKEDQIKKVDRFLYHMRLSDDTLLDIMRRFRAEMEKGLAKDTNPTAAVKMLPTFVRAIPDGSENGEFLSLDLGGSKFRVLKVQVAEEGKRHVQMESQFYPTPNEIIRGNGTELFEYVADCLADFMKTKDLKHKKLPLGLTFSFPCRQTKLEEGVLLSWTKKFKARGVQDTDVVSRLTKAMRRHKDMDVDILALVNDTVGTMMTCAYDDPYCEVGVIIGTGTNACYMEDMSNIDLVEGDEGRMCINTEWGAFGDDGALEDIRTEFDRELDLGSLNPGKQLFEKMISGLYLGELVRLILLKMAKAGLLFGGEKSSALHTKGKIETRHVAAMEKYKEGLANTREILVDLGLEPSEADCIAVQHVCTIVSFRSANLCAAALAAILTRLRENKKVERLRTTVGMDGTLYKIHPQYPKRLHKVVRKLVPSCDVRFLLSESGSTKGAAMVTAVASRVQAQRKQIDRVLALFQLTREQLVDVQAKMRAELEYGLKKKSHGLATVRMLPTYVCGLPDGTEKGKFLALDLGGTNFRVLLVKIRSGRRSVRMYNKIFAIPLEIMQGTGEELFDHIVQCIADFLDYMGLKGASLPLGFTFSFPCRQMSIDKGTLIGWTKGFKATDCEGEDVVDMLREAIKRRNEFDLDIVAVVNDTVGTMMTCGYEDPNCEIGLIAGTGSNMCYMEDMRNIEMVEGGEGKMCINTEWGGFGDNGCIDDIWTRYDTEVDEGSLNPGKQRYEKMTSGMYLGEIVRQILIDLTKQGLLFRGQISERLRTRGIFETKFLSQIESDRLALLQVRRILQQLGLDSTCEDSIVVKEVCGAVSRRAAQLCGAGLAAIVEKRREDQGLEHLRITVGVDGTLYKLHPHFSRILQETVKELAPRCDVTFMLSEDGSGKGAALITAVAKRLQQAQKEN
Description: HKDC1 hexokinase inhibitors, dose response, biochemical, W721R variant (AID 504729).

Assay [2] deals with Tyrosine-protein kinase receptor UFO (Homo sapiens, UniProt P30530).
The target in assay [3] is cGMP-dependent protein kinase 1 (Homo sapiens, UniProt Q13976).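 Note: value from a kinome panel screen with PRKG1 as the panel member.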
Assay [4] has as its target Insulin-like growth factor 1 receptor (Homo sapiens, UniProt P08069). Description: Navigating the Kinome. Panel member name: IGF1R.
Assay [5] deals with Protein kinase C delta type (Homo sapiens, UniProt Q05655).
Assay [6] addresses Protein-tyrosine kinase 2-beta (Homo sapiens, UniProt Q14289).
The target in assay [7] is Cyclin-dependent kinase 5 (Homo sapiens, UniProt Q00535).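 Note: CDK5 measured as one member of a kinase profiling panel.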
Chain of Cyclin-dependent kinase 5 (Q00535 whole entry): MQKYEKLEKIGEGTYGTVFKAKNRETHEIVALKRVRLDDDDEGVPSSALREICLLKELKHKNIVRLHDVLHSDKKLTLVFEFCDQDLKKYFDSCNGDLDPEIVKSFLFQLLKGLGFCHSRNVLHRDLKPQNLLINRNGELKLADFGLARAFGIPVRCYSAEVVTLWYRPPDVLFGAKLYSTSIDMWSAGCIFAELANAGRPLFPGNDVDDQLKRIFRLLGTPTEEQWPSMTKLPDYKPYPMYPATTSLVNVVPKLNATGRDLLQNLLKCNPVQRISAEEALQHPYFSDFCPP
For a further assay, the target named is Aurora kinase B (Homo sapiens, UniProt Q96GD4).
Chain of Aurora kinase B (Q96GD4 whole entry): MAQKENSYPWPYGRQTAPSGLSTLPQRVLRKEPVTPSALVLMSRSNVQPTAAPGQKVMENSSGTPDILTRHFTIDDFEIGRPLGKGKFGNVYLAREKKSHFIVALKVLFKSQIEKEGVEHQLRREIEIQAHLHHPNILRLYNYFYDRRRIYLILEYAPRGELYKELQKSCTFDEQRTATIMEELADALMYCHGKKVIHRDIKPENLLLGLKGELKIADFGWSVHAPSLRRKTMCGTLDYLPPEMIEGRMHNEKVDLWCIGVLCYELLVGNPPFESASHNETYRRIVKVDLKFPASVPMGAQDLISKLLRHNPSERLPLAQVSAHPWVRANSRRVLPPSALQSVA
For assay [8], the target named is Protein kinase C theta type (Homo sapiens, UniProt Q04759). Description: Navigating the Kinome. Panel member name: PRKCQ.
The target of assay [9] is Non-receptor tyrosine-protein kinase TYK2 (Homo sapiens, UniProt P29597).
A further assay deals with Activin receptor type-1 (Homo sapiens, UniProt Q04771). The experiment in a line: Navigating the Kinome. Panel member name: ACVR1.
Chain of Activin receptor type-1 (Q04771 whole entry): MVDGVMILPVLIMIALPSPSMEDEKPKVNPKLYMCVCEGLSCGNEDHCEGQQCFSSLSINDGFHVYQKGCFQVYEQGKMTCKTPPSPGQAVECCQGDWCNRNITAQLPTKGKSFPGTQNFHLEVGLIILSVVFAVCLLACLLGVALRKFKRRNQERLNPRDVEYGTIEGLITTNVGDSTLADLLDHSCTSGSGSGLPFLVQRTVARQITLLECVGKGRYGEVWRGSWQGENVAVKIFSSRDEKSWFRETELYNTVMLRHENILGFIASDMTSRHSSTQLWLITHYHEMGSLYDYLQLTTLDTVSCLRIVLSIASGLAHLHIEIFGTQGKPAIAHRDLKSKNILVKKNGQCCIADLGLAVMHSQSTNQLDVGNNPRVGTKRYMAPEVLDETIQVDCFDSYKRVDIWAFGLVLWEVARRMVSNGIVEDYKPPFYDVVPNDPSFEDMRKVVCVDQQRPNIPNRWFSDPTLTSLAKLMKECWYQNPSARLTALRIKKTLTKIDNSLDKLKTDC
In assay [10] the target is Glycogen synthase kinase-3 beta (Homo sapiens, UniProt P49841).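 Note: value comes from a broad kinome profiling panel, with GSK3B as the panel member.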
Chain of Glycogen synthase kinase-3 beta (P49841 whole entry): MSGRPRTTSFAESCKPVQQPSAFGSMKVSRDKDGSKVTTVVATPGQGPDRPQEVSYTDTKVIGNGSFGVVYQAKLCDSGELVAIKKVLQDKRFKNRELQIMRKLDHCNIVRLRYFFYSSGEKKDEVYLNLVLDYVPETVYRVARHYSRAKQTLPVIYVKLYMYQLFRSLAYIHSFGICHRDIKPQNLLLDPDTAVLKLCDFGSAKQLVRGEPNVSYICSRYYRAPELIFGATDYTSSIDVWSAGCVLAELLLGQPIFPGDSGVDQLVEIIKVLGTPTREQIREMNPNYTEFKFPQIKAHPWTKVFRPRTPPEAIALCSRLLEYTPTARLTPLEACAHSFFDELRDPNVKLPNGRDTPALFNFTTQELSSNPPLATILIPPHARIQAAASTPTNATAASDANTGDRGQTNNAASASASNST
For assay [11], the target named is Hepatocyte growth factor receptor (Homo sapiens, UniProt P08581).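 Note: kinase panel profiling across the kinome, with MET as the panel member.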
Chain of Hepatocyte growth factor receptor (P08581 whole entry): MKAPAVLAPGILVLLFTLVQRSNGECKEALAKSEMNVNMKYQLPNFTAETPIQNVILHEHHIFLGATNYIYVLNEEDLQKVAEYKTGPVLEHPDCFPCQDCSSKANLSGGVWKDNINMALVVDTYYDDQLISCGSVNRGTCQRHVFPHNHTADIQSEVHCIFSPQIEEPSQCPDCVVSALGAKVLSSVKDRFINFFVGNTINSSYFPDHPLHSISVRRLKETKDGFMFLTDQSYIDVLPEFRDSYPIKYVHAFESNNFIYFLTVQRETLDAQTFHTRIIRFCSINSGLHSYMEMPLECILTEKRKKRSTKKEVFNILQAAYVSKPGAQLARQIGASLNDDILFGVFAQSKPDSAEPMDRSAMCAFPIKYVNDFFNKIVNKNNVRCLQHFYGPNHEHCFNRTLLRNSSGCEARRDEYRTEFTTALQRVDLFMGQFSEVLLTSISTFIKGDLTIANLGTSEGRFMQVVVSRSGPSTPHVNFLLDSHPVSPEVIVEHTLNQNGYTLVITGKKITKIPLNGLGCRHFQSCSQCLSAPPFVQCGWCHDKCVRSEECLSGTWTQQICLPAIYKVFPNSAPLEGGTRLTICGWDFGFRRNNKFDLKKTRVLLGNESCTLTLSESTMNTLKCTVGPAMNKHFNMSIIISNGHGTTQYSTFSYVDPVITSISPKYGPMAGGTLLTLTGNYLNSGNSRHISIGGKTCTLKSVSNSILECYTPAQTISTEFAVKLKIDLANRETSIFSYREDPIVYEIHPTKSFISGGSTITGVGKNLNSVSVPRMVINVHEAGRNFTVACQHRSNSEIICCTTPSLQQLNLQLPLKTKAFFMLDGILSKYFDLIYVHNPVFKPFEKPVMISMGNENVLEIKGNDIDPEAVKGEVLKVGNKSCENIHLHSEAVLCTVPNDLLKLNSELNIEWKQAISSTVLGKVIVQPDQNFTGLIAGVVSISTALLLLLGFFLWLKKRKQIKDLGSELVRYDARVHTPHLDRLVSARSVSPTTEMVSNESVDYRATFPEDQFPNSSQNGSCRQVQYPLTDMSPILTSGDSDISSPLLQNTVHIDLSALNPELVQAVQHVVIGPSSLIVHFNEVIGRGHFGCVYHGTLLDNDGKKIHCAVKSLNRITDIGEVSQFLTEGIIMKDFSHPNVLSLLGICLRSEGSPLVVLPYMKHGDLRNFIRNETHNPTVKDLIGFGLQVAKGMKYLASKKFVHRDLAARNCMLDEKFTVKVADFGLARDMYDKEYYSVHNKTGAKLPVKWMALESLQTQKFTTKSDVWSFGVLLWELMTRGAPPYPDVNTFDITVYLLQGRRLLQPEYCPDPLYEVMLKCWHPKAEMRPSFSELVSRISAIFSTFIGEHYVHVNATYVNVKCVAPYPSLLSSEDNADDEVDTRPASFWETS
Assay [12] has as its target Ribosomal protein S6 kinase alpha-5 (Homo sapiens, UniProt O75582).
Assay [13] has as its target Interleukin-1 receptor-associated kinase 1 (Homo sapiens, UniProt P51617).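 Note: IRAK1 tested as one member of a kinome panel.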
Assay [14] deals with Calcium/calmodulin-dependent protein kinase type II subunit alpha (Homo sapiens, UniProt Q9UQM7). Description: Navigating the Kinome. Panel member name: CAMK2A.
Assay [15] deals with Cyclin-dependent kinase 9 (Homo sapiens, UniProt P50750).
Another assay deals with Activated CDC42 kinase 1 (Homo sapiens, UniProt Q07912). The experiment in a line: Navigating the Kinome. Panel member name: ACK1.
Assay [16] deals with Calcium/calmodulin-dependent protein kinase type II subunit beta (Homo sapiens, UniProt Q13554).
The nature of assay [17]: HeLa cell cytotoxicity, dose response, cytotoxicity control for MgcRacGAP inhibitor project (AID 624300).
For assay [18], the target named is T2, Alkaline phosphatase, tissue-nonspecific isozyme (Homo sapiens, UniProt P05186).
T2 sequence (P05186 whole entry): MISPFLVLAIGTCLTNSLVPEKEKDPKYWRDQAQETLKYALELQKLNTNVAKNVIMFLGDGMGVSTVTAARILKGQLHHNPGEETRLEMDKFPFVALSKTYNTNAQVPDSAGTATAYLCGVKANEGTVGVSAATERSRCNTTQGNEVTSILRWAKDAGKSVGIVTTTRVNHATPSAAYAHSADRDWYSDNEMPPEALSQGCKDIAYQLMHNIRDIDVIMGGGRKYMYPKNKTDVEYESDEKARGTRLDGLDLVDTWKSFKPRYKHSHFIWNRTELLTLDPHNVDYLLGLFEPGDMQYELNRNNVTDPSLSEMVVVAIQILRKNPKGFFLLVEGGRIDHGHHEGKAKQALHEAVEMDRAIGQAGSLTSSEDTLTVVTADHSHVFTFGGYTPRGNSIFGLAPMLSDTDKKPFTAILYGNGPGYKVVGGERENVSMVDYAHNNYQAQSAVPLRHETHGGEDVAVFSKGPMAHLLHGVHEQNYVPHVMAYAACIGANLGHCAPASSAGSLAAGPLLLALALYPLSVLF
Description: TNAP enzyme inhibition by screening hits, dose response, selectivity assay for mouse IAP inhibitor project, biochemical, human TNAP, uHTS hits (AID 488906).

Assay [19] addresses Intestinal-type alkaline phosphatase (Mus musculus, UniProt P24822). Description: PubChem AID 488785.
Assay [20] has as its target Intestinal-type alkaline phosphatase (Homo sapiens, UniProt P09923). Description: human intestinal alkaline phosphatase activators, dose response, biochemical, luminescence, uHTS hits (AID 463120).

Active and inactive are the calls of the source. Bounds are passed on as bounds.

Chain of Insulin-like growth factor 1 receptor (P08069 31-736 limits assumed): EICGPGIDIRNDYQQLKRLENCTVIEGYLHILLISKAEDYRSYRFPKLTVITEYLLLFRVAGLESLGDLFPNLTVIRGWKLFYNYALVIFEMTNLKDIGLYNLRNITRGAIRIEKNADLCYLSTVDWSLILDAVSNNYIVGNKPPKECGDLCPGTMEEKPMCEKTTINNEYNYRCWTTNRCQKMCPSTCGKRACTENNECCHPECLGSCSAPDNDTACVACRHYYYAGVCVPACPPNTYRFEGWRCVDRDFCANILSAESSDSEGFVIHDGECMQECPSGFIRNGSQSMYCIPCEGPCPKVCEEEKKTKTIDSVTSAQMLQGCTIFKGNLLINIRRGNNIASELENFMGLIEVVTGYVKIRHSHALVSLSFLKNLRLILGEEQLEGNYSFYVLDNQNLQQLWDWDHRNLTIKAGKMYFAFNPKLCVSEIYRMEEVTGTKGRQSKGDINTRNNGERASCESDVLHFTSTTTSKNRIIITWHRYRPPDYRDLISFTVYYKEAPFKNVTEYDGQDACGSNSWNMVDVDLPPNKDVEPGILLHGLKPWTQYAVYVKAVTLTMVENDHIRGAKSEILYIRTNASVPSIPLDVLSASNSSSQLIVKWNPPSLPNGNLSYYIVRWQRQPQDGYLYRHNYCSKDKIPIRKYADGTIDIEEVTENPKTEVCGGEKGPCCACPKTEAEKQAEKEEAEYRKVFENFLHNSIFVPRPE
Chain of Insulin-like growth factor 1 receptor (P08069 741-1367 limits assumed): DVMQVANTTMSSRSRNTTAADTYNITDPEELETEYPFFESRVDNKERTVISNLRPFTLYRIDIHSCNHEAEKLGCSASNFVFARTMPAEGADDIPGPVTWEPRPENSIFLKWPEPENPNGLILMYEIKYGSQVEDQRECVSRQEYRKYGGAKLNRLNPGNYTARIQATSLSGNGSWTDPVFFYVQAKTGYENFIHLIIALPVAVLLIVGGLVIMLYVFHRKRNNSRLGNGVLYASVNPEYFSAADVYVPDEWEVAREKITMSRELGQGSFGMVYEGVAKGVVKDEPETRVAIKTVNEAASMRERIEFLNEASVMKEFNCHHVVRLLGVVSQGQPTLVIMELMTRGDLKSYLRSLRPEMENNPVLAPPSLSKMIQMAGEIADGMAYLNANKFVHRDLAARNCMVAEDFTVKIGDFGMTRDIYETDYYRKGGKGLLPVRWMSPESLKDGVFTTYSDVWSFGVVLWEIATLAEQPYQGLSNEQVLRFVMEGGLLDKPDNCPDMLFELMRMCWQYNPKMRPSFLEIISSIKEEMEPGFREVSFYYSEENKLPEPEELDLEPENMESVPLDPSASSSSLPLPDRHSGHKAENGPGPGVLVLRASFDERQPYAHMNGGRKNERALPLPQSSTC
Chain of Intestinal-type alkaline phosphatase (Mus musculus, UniProt P24822) (P24822 whole entry): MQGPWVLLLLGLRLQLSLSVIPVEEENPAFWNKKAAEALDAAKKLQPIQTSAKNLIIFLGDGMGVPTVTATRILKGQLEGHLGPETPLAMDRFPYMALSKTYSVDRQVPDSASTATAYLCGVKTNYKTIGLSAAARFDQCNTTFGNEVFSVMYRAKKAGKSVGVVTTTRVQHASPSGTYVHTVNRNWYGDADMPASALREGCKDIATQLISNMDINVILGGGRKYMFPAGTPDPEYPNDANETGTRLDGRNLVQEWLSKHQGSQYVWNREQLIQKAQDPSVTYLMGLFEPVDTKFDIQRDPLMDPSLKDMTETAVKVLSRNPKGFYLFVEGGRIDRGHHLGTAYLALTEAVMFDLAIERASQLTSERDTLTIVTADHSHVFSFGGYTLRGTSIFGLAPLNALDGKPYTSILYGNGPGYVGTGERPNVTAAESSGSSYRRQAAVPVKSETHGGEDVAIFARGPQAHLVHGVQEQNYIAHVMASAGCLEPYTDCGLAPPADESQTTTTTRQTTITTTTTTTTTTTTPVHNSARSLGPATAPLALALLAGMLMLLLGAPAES

As to `COC(=O)C1CN(C#N)N(c2ccc(Cl)cc2)C12c1ccccc1-c1ccccc12` (stereo unspecified), the EC50 in assay [1] is 3.75 µM (active); in the assay with BJ, 1.93 µM (active); on Integrin alpha-4, 18.9 µM (active). The IC50 on Hexokinase HKDC1 is 3.81 µM (active).
As to `Nc1noc2cccc(-c3cccc(O)c3)c12`, the Ki in [2] is > 2 µM (inactive); in [3], > 2 µM (inactive); in assay [4] it was > 2 µM (inactive); in assay [5], > 7.94 µM (inactive); in assay [6] it was > 1.58 µM (inactive); in assay [7], > 6.31 µM (inactive). Moreover, the inhibitory constant (Ki) is 3.98 µM (active) at Aurora kinase B; 20 µM (active) in [8]; > 2 µM (inactive) in [9]; 0.631 µM (active) on Activin receptor type-1; > 50.1 µM (inactive) in [10]; > 12.6 µM (inactive) in assay [11]. The Ki in assay [12] was 0.631 µM (active); in assay [13], > 7.94 µM (inactive); in assay [14], 50.1 µM (active); in assay [15], 15.8 µM (active); at Activated CDC42 kinase 1, 25.1 µM (active); in assay [16], > 7.94 µM (inactive).
Regarding `Cc1ccc2[nH]c(/C(C#N)=C/c3ccc(O)c(O)c3)nc2c1`, the CC50 in assay [17] is 100 µM (active).
Consider `O=C(NN1C(=O)CSC1=S)C(=O)NN1C(=O)CSC1=S`, for which the IC50 in assay [18] is > 100 µM (inactive); in [19], 7.75 µM (active). Further, the EC50 in assay [20] was 9.21 µM (active).

Usually EC50 stands for the concentration that produces a half-maximal response. What is called IC50 is the concentration that gives 50% inhibition. Broadly, the Ki is a measure of affinity in units of concentration, obtained from inhibition or displacement. The CC50 is the concentration giving 50% cytotoxicity.
